Key:
[1] = biological target: T1, human Factor Xa (Homo sapiens, UniProt P00742); assay: Factor Xa inhibition, chromogenic substrate hydrolysis, Ki app.; assay type: biochemical; settings: read-out: FXa Ki
T1 construct: purified human Factor Xa; purchased Haematologic Technologies, VT, USA

[2] = biological target: T2, human Urokinase (Homo sapiens, UniProt P00749); assay: Urokinase (uPA) inhibition, chromogenic substrate hydrolysis, Ki app.; assay type: biochemical
T2 construct: purchased American Diagnostica, CT, USA

T1 sequence (P00742 235-488 limits assumed): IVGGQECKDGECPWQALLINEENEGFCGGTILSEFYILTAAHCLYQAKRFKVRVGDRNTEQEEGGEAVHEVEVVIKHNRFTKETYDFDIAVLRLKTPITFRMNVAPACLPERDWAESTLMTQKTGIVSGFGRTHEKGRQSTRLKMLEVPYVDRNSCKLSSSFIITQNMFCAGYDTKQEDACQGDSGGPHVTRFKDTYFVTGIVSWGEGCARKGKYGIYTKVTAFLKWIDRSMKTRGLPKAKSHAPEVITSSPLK
T1 sequence (P00742 41-179 partner limits assumed): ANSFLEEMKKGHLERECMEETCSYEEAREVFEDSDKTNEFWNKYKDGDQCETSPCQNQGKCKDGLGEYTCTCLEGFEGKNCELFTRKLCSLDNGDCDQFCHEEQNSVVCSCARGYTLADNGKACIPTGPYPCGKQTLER

Ki [1]	Ki [2]	SMILES
0.618 nM	260 nM	N=C(N)c1ccc2[nH]c(-c3cc(CCC(=O)O)cc(Br)c3O)c(Cc3ccccc3)c2c1 [Ex. 802, 3-[3-(3-Benzyl-5-carbamimidoyl-1H-indol-2-yl)-5-bromo-4-hydroxy-phenyl]-propionic acid]
298 nM	65 nM	Cc1cc(-c2ccccc2)c(O)c(-c2cc3cc(C(=N)N)ccc3[nH]2)c1 [compound 820]
460 nM		N=C(N)c1ccc2nc(-c3ccc(OCC(=O)NCc4cccc5ccccc45)cc3O)[nH]c2c1 [compound 258, 2-[4-(6-Carbamimidoyl-1H-benzoimidazol-2-yl)-3-hydroxy-phenoxy]-N-naphthalen-1-ylmethyl-acetamide]
5400 nM	4 nM	N=C(N)c1cc2cc(-c3cc(CC(=O)N4CCS(=O)(=O)CC4)cc(-c4ccccc4)c3O)[nH]c2cc1Cl [compound 860]

Reference: patent US6867200B1, “(Hetero)aryl-bicyclic heteroaryl derivatives, their preparation and their use as protease inhibitors” (Axys Pharmaceuticals, Inc., priority 1998, dated 2005)
